Measurements taken from patent US20200061076A1, “METHODS OF TREATING LEUKODYSTROPHIES” (Ramot at Tel-Aviv University Ltd., priority 2017, published 2020).

Assays:
Format in all cases: cell-based, mouse
[1] = tested on: Mut MEFs; assay: Cell survival assay, Crystal violet staining, Mut MEFs; settings: 24 hours, untreated cells set to 100%
Procedure: (§1) Cells were seeded on 96-wells plate at a density of 5000 cells per well. Astrocytes were seeded following coating with 0.001% PDL.

[2] = tested on: Mut MEFs; assay: JC1 staining of intact and damaged mitochondria (mitochondrial membrane potential); settings: Mutant MEFs, 1 μM, 24 hours (FIG. 12)
Procedure: Mut MEFs were treated or not for 6 hours with the indicated concentrations of p8G5 (blue), pre084 (purple), or NE-100 (yellow), washed and stained with Hoechst and JC1 for 30 minutes followed by image acquisition using In-Cell-Analyzer-2000. Shown is the % of red/green JC1 integrated intensity per cell relative to that in untreated WT cells of 2-4 independent experiments.
Following, the cells were washed, stained with Hoechst and JC-1 fluorescent dyes for 30 minutes, and subjected to image acquisition using In-Cell-Analyzer-2000. Shown is cellular content of damaged mitochondria (JC1 green channel, red bars), intact mitochondria (JC1 red channel, green bars) and damaged to intact mitochondria ratio (blue bars). Values of control (vehicle treated) cells was set to 100%.
Mut MEFs were treated with the indicated compounds at 10 μM for 24 hours followed by staining with fluorogenic dyes and image-based single-cell analysis. Shown is average effect on ROS level from at least 3-independent experiments ±SEM. […] Mut MEFs were incubated or not for 24 hours with 10 μM of the indicated compound, washed and stained with Crystal Violet. […] Mut MEFs were incubated or not for 24 hours with 10 μM of the indicated compound, washed and stained with JC1 and Hoechst followed by image-based single-cell analysis. Values of untreated cells were set as 100%. Shown is average of at least 3 independent experiments for each parameter compared to its matching control ±SEM. * p<0.05. Putative targets are indicated.
Mut MEFs were incubated or not for 24 hours with 10 μM of the indicated compounds, washed and stained with Hoechst and JC1 followed by image-based single-cell analysis. […] Mut MEFs were incubated or not with the indicated concentrations of the indicated compounds for 2 hours followed by addition of 50 ng/ml Tunicamycin (Tun) for additional 22 hours, stained with Crystal Violet followed by measurement of absorbance at 570 nm.
MEFs were seeded on 1% gelatin-coated 96-wells plate at a density of 5000 cells per well. 24 hours post-plating the cells were incubated with the tested compounds for additional 24 hours. Several DMSO-treated cells (control) were included in each plate at different locations. Following, the cells were stained by addition of fluorogenic dyes for further 30 minutes incubation at 37° C. […] CellROX was used together with Hoechst and CFSE; JC1 was used together with Hoechst. Cells were washed with Hank's balanced salt solution (HBSS) which was used for images acquisition using IN Cell Analyzer 2000 (GE Healthcare, Pitsburgh, Pa., USA). IN Cell Developer Toolbox 1.9.1 software (GE Healthcare) was used for analysis which included cells segmentation using Hoechst and/or CFSE signals. For analysis of JC1 staining, integrated intensity of green and red emissions were used for detection of damaged and intact mitochondria, respectively.

[3] = tested on: primary OPC; assay: OPC differentiation assay (IncuCyte); settings: 1 μM, 60 hours in differentiation medium (FIG. 13)
Procedure: Images were taken every 10 hours followed by analysis using IncuCyte ZOOM software (2016B).
5,000 cells OPCs per well were seeded in a 96 wells plate and maintained overnight in proliferation media (Emery et al. 2013). […] OPC differentiation was monitored by continuous imaging. Images taken at ten hours intervals were analyzed by IncuCyte NeuroTrack software for the following parameters: Neurite length, Neurite branch points, Cell body clusters and Cell body cluster area. Statistics—For all comparisons, Student's t-test was performed using ≥3 independent biological repeats for each group (methodological selection of sample size was not applied).

[4] = tested on: Mut astrocytes; assay: Survival under Tunicamycin-induced ER stress, Crystal Violet, astrocytes; settings: 30 μM, 50 ng/ml Tunicamycin last 22 hours (FIG. 19)
Procedure: WT and Mut astrocytes were treated or not for 24 hours with 20, 30 or 50 μM of the indicated Sig-1R binders in the presence of 50 ng/ml Tunicamycin (Tun) during the last 22 hours. Following, the cells were washed, fixated and stained with Crystal Violet (CV) followed by measurement of absorbance at 570 nm. Shown is % of CV staining relative to cells not treated with tunicamycin nor Sig-1R binder ±SEM of 3 independent experiments, *p<0.05.
as §1

[5] = tested on: Mut MEFs; assay: Oxygen consumption (Seahorse XF Cell Mito Stress Test), MEFs
Procedure: Mut MEFs were treated or not for 6 hours with the indicated concentrations of the indicated Sig-1R binders. Oxygen consumption was measured in a XF96 Extracellular Flux Analyzer using the Seahorse XF Cell Mito Stress Test Kit. The Basal respiration (FIG. 7A) and ATP-linked respiration (FIG. 7B) data were normalized to biomass as determined by Crystal Violet staining.
Mut MEFs were treated or not for 6 hours with the indicated concentrations of the indicated Sig-1R binders. Oxygen consumption was measured in a XF96 Extracellular Flux Analyzer using the Seahorse XF Cell Mito Stress Test Kit. The Basal respiration (FIG. 8A), ATP-linked respiration (FIG. 8B) and maximal respiration (FIG. 8C) data was normalized to mtDNA content as detailed in FIG. 2.
(§2) The data were normalized to cell number, obtained by Crystal Violet staining, or to mtDNA content.

[6] = tested on: Mut primary astrocytes; assay: Oxygen consumption (OCR), primary astrocytes; settings: 1 or 10 μm, 6 hours, normalized to cell number (FIGS. 17B-C)
Procedure: (§3) Shown is average relative quantity (RQ) of 2-6 independent experiments normalized to their untreated controls ±SEM. […] Values of ATP-linked respiration (FIG. 17B) and maximal respiration (FIG. 17C) were analyzed and normalized to cell number.
as §2

[7] = tested on: Mut primary astrocytes; assay: mtDNA quantification, primary astrocytes; settings: 1 or 10 μm, 6 hours (FIG. 17A)
Procedure: as §3

[8] = tested on: Mut MEFs; assay: mtDNA quantification (qPCR of mitochondrial 12S rRNA and nuclear 18S rRNA genes), MEFs; settings: 1 μM-10 μM, 6 hours incubation (FIG. 2)
Procedure: DNA extracted from WT and Mut MEFs that were treated or not for 6 hours with 0.1 μM, 1 μM or 10 μM of p8G5 (blue), Pre084 (known SIG-1R agonist, purple), pridopidine (known SIG-1R agonists, green) or NE-100 (known SIG-1R antagonist, yellow) was subjected to qPCR analysis of mitochondrial 12S rRNA and nuclear 18S rRNA genes.

[9] = tested on: Mut MEFs; assay: TMRE staining, flow cytometry; settings: 10 μM, 6 hours (FIGS. 5A-B)
Procedure: Mut MEFs were treated or untreated with the indicated concentrations of the indicated Sig-1R binders for 6 hours, stained by TMRE for 30 minutes and analyzed by flow cytometry. Shown are flow cytometry histograms and bar graphs representing % mean TMRE fluorescence intensity relative to non-treated WT cells of a representative experiment.
MEFs were seeded at a density of 4×10^4 cells per well in a 24-wells plate. 24 hours post-plating the cells were incubated with the tested compounds for additional 6 hours followed by staining with 200 nM Tetra-Methyl-Rhodamine-Ethyl esterperchlorate (TMRE) (Abcam) for 30 minutes at 37° C. Cells were removed by trypsinyzation, washed and resuspended in PBS. 5-10×10^3 cells were analyzed by Stratedigm S1000EXi cell sorter and FlowJo software (FLOWJO, LLC, Ashland, Oreg., USA).

CC1=C2C[C@H]3[C@@H](CC=C4C[C@@H](O)CC[C@@]43C)[C@@H]2CC[C@]12O[C@@H]1C[C@H](C)CN[C@H]1[C@H]2C [Cyclopamine, reference compound]
Survival (%) ± SEM Mut MEFs ([1]; 0.1 μM): 92 ± 2.5%
Survival (%) ± SEM Mut MEFs ([1]; 1 μM): 95 ± 4.1%
Survival (%) ± SEM Mut MEFs ([1]; 10 μM): 79 ± 1.4%
content of damaged mitochondria (JC1 green channel) [2]: decreased content of damaged mitochondria
content of intact mitochondria (JC1 red channel) [2]: increased content of intact mitochondria
neurite length, neurite branch points, cell body clusters and cell body cluster area [3]: positive effect

CCCN1CCC(c2cccc(S(C)(=O)=O)c2)CC1 [pridopidine, 4-(3-(Methylsulfonyl)phenyl)-1-propylpiperidine]
survival rate of Mut astrocytes under ER-stress conditions [4]: increased the survival rate
maximal respiration rate per mitochondrial content ([5]; 1 μM, 6 hours (FIG. 8C)): increased the maximal respiration capacity per mitochondria to the level of untreated WT cells
basal and ATP-linked respiration rate per mitochondrial DNA content ([5]; 6 hours (FIGS. 8A-B)): beneficial effect
ATP-linked and maximal respiration in mutant astrocytes [6]: increased both ATP-linked and maximal respiration
mitochondrial content per cell in astrocytes [7]: no effect on mitochondrial content per cell
mitochondrial content in Mut MEFs [8]: lowered the abnormal high mitochondrial content
TMRE staining (mitochondrial membrane potential) [9]: increased TMRE staining to a level above that of untreated WT cells
